Experimental data: ChEMBL document CHEMBL1201862, “PubChem BioAssay data set” (2004)
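These data come from cells grown in 96-well plates and exposed to compound for 48 hours at five concentrations. GI50 marks 50% less growth.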 Activity calls are given as the source filed them. Rule as the data show it: active = GI50 up to about 1.1 µM and inactive = higher.

Key:
Test in all cases: inhibition of tumour cell growth, NCI panel, 48 h
[1] = tested on: KM12
[2] = tested on: UO-31
[3] = tested on: A498
[4] = tested on: SNB-75
[5] = tested on: T47D
[6] = tested on: MCF7
[7] = tested on: OVCAR-4
[8] = tested on: SN12C
[9] = tested on: OVCAR-5
[10] = tested on: Malme-3M
[11] = tested on: MOLT-4
[12] = tested on: HL-60
[13] = tested on: K562
[14] = tested on: SK-MEL-28
[15] = tested on: U-251
[16] = tested on: MDA-N
[17] = tested on: COLO 205
[18] = tested on: OVCAR-3
[19] = tested on: SK-OV-3
[20] = tested on: HOP-62

Question: With `N#Cc1ccc2oc3ccc(C#N)cc3c(=O)c2c1` as the compound, how does the GI50 [1] read?
Answer: 46.5 µM (inactive)

Question: And the GI50 [2]?
Answer: > 100 µM (inactive)

Question: And the GI50 [3]?
Answer: 14.8 µM (inactive)

Question: What about the GI50 [4] of the same compound?
Answer: 31.7 µM (inactive)

Question: And the GI50 [5]?
Answer: > 100 µM (inactive)

Question: And the GI50 [6]?
Answer: 24.5 µM (inactive)

Question: What about the GI50 [7] of the same compound?
Answer: 18 µM (inactive)

Question: What about the GI50 [8] of the same compound?
Answer: > 100 µM (inactive)

Question: And the GI50 [9]?
Answer: 19.7 µM (inactive)

Question: What about the GI50 [10] of the same compound?
Answer: 24.2 µM (inactive)

Question: What about the GI50 [11] of the same compound?
Answer: 23.6 µM (inactive)

Question: What about the GI50 [12] of the same compound?
Answer: 17.9 µM (inactive)

Question: What about the GI50 [13] of the same compound?
Answer: 31.3 µM (inactive)

Question: What about the GI50 [14] of the same compound?
Answer: 18.5 µM (inactive)

Question: What about the GI50 [15] of the same compound?
Answer: 17.1 µM (inactive)

Question: What about the GI50 [16] of the same compound?
Answer: 16.4 µM (inactive)

Question: What about the GI50 [17] of the same compound?
Answer: 26.7 µM (inactive)

Question: And the GI50 [18]?
Answer: > 10 µM (inactive)

Question: `CCOC(=O)/C=C(/C(=O)OCC)n1cc(C)c(=O)[nH]c1=O` was tested. Which GI50 [1] did it give?
Answer: 14.2 µM (inactive)

Question: What about the GI50 [2] of the same compound?
Answer: 11.2 µM (inactive)

Question: And the GI50 [3]?
Answer: 12.9 µM (inactive)

Question: What about the GI50 [4] of the same compound?
Answer: 10.3 µM (inactive)

Question: And the GI50 [5]?
Answer: 3.69 µM (inactive)

Question: And the GI50 [6]?
Answer: 3.89 µM (inactive)

Question: What about the GI50 [19] of the same compound?
Answer: 18.3 µM (inactive)

Question: And the GI50 [7]?
Answer: 4.93 µM (inactive)

Question: And the GI50 [8]?
Answer: 5.06 µM (inactive)

Question: What about the GI50 [9] of the same compound?
Answer: 5.87 µM (inactive)

Question: What about the GI50 [10] of the same compound?
Answer: 2.29 µM (inactive)

Question: And the GI50 [11]?
Answer: 2.44 µM (inactive)

Question: What about the GI50 [20] of the same compound?
Answer: 18.9 µM (inactive)

Question: And the GI50 [12]?
Answer: 1.67 µM (inactive)

Question: What about the GI50 [13] of the same compound?
Answer: 1.9 µM (inactive)

Question: What about the GI50 [14] of the same compound?
Answer: 4.78 µM (inactive)

Question: And the GI50 [15]?
Answer: 6.62 µM (inactive)

Question: What about the GI50 [16] of the same compound?
Answer: 5.83 µM (inactive)

Question: And the GI50 [17]?
Answer: 1.81 µM (inactive)

Question: And the GI50 [18]?
Answer: 2.68 µM (inactive)

Question: What does the source list for `CC(O)c1cc2c(s1)C(=O)c1scc(C(C)O)c1C2=O` (stereo not drawn)?
Answer: GI50 [1]: 1.79 µM (inactive); GI50 [2]: 0.337 µM (active); GI50 [3]: 2.2 µM (inactive); GI50 [4]: 0.29 µM (active); GI50 [5]: 1.95 µM (inactive); GI50 [6]: 0.413 µM (active); GI50 [19]: 2.64 µM (inactive); GI50 [7]: 0.745 µM (active); GI50 [8]: 0.53 µM (active); GI50 [9]: 1.37 µM (inactive); GI50 [10]: 0.172 µM (active); GI50 [11]: 0.753 µM (active); GI50 [20]: 0.973 µM (active); GI50 [12]: 0.646 µM (active); GI50 [13]: 0.597 µM (active); GI50 [14]: 0.279 µM (active); GI50 [15]: 0.419 µM (active); GI50 [16]: 0.186 µM (active); GI50 [17]: 1.91 µM (inactive); GI50 [18]: 0.393 µM (active)

Question: For `Cc1cc(C)c2c(O)cc(-c3ccc4ccccc4c3)nc2n1`, which GI50 [1] is on record?
Answer: 6.04 µM (inactive)

Question: And the GI50 [2]?
Answer: 22.9 µM (inactive)

Question: What about the GI50 [3] of the same compound?
Answer: 3.9 µM (inactive)

Question: What about the GI50 [4] of the same compound?
Answer: 15.8 µM (inactive)

Question: What about the GI50 [5] of the same compound?
Answer: 17.3 µM (inactive)

Question: What about the GI50 [6] of the same compound?
Answer: 15.5 µM (inactive)

Question: And the GI50 [19]?
Answer: 33.3 µM (inactive)

Question: What about the GI50 [7] of the same compound?
Answer: 14.6 µM (inactive)

Question: What about the GI50 [8] of the same compound?
Answer: 43.7 µM (inactive)

Question: What about the GI50 [9] of the same compound?
Answer: 43.8 µM (inactive)

Question: And the GI50 [10]?
Answer: 21.6 µM (inactive)

Question: What about the GI50 [11] of the same compound?
Answer: 3.66 µM (inactive)

Question: And the GI50 [20]?
Answer: 32.1 µM (inactive)

Question: And the GI50 [12]?
Answer: 3.04 µM (inactive)

Question: And the GI50 [13]?
Answer: 2.05 µM (inactive)

Question: What about the GI50 [14] of the same compound?
Answer: > 47.4 µM (inactive)

Question: And the GI50 [15]?
Answer: 16.7 µM (inactive)

Question: And the GI50 [16]?
Answer: 3.34 µM (inactive)

Question: What about the GI50 [17] of the same compound?
Answer: 18.3 µM (inactive)

Question: What about the GI50 [18] of the same compound?
Answer: 32.4 µM (inactive)

Question: What does the source list for `O=C(Nc1ccn(C2CCC(COC(c3ccccc3)(c3ccccc3)c3ccccc3)O2)c(=O)n1)c1ccccc1` (stereo not drawn)?
Answer: GI50 [1]: 5.87 µM (inactive); GI50 [2]: 5.3 µM (inactive); GI50 [3]: 5 µM (inactive); GI50 [4]: 2.39 µM (inactive); GI50 [5]: 7.46 µM (inactive); GI50 [6]: 4.22 µM (inactive); GI50 [19]: 9.44 µM (inactive); GI50 [7]: 2.82 µM (inactive); GI50 [8]: 1.88 µM (inactive); GI50 [9]: 3.76 µM (inactive); GI50 [10]: 3.18 µM (inactive); GI50 [11]: 2.56 µM (inactive); GI50 [20]: 10.7 µM (inactive); GI50 [12]: 1.83 µM (inactive); GI50 [13]: 2.86 µM (inactive); GI50 [14]: 9.23 µM (inactive); GI50 [15]: 4.06 µM (inactive); GI50 [16]: 3.57 µM (inactive); GI50 [17]: 1.77 µM (inactive); GI50 [18]: 2.4 µM (inactive)

Question: What does the source list for `Oc1cc(-c2cccc(Cl)c2)nc2cc3c(cc12)OCO3`?
Answer: GI50 [1]: 0.24 µM (active); GI50 [2]: 0.33 µM (active); GI50 [3]: 0.371 µM (active); GI50 [4]: 0.258 µM (active); GI50 [5]: 10.6 µM (inactive); GI50 [6]: 2.83 µM (inactive); GI50 [19]: 0.326 µM (active); GI50 [7]: > 75 µM (inactive); GI50 [8]: 0.912 µM (active); GI50 [9]: 18.8 µM (inactive); GI50 [10]: 0.138 µM (active); GI50 [11]: 1.89 µM (inactive); GI50 [20]: 0.379 µM (active); GI50 [12]: 0.157 µM (active); GI50 [16]: 0.0255 µM (active); GI50 [17]: 1.85 µM (inactive)

Question: Which GI50 [1] does the source give for `COc1ccc2[nH]c(Cl)c(/C=C3/C(=O)N(c4ccccc4)c4ccccc43)c2c1` here?
Answer: 3.25 µM (inactive)

Question: What about the GI50 [2] of the same compound?
Answer: 7.59 µM (inactive)

Question: And the GI50 [3]?
Answer: 8.17 µM (inactive)

Question: And the GI50 [4]?
Answer: 12.3 µM (inactive)

Question: What about the GI50 [5] of the same compound?
Answer: 3.76 µM (inactive)

Question: What about the GI50 [6] of the same compound?
Answer: 0.506 µM (active)

Question: What about the GI50 [19] of the same compound?
Answer: 3.5 µM (inactive)

Question: And the GI50 [8]?
Answer: 4.78 µM (inactive)

Question: And the GI50 [9]?
Answer: 13.6 µM (inactive)

Question: What about the GI50 [10] of the same compound?
Answer: 6.76 µM (inactive)

Question: And the GI50 [11]?
Answer: 3.82 µM (inactive)

Question: What about the GI50 [20] of the same compound?
Answer: 6.81 µM (inactive)

Question: What about the GI50 [12] of the same compound?
Answer: 2.33 µM (inactive)

Question: What about the GI50 [13] of the same compound?
Answer: 3.18 µM (inactive)

Question: What about the GI50 [14] of the same compound?
Answer: 8.49 µM (inactive)

Question: What about the GI50 [15] of the same compound?
Answer: 3.98 µM (inactive)

Question: And the GI50 [16]?
Answer: 1.6 µM (inactive)

Question: And the GI50 [17]?
Answer: 2.18 µM (inactive)

Question: What about the GI50 [18] of the same compound?
Answer: 3.37 µM (inactive)
